Assay results published in patent US10940150B2, “Thymine derivatives and quinazoline-dione derivatives for the inhibition of HSP27” (TECHNISCHE UNIVERSITAET DRESDEN, priority 2014, dated 2021).

Experiments:
[1] = biological target: T1, HSP27 (Homo sapiens, UniProt P04792); assay: SpeedScreen gel filtration binding test; settings: PD SpinTraps G-25, detection by mass spectroscopy
From the text: For the experimental validation of low-molecular-weight compounds which act as potential HSP27 inhibitors according to the in silico prediction, a method based on gel filtration was employed. The method for detecting molecular bonds using gel filtration was described in 2004 as “SpeedScreen” [Muckenschnabel et al., 2004] and was adapted to meet the requirements of the invention. […] For the separation, PD SpinTraps G-25 from GE Healthcare were used. During the 2-minute centrifugation at 800×g (according to operating instructions), these columns allow molecules with a molecular weight of greater than or equal to 5000 g/mol to pass through, while smaller molecules are retained in the matrix. The target protein HSP27 has a molecular weight of 27000 g/mol and therefore passes through the matrix. […] Non-bound low-molecular-weight compounds are retained by the matrix. Molecules that have passed through the matrix can then be detected by mass spectroscopy. This enables “binders” to be differentiated from “non-binders”. For the experimental validation of low-molecular-weight compounds which act as potential HSP27 inhibitors according to the in silico prediction, a method based on gel filtration was employed. […] Molecules that have passed through the matrix can then be detected by mass spectroscopy. […]

[2] = biological target: T1, HSP27; assay: Spectrophotometric protein aggregation assay (citrate synthase, HSP27 chaperone function); assay type: biochemical; settings: 750 μmol/L; 43° C., 500 nm, 1.44 μmol/L CS, 481 nmol/L HSP27
Procedure: FIG. 1: a spectrophotometric protein aggregation assay at 43° C., a wavelength of 500 nm and a concentrations of the proteins: 1.44 μmol/L citrate synthase (CS), 481 nmol/L HSP27 (HSP) in a 40 mmol/L HEPES buffer (pH 7.4) during treatment with 14 or 28 μmol/L 2-(3-trichlorovinylphenylamino)-1,9-dihydropurin-6-one (CS+HSP+test substance no. 2), with 750 μmol/L BVDU (CS+HSP+BVDU) and without (CS+HSP; reference);
To measure the efficacy of the purine derivatives according to the invention, robust experiments for the chaperone function of the HSP27 protein were performed:
A known client protein (=substrate on which HSP27 acts as a chaperone) of HSP27 is citrate synthase. Citrate synthase is denatured when the temperature increases to 43° C. This heat denaturation is prevented or delayed by the presence of HSP27 [Jakob U, 1993]. By adding the novel active ingredients, their efficacy can thus be measured through the inhibition of the HSP27 chaperone function.
To determine the activity (i.e. the effect on the aggregation behaviour of the citrate synthase (CS) after thermal incubation) of 2-(3-trichlorovinylphenylamino)-1,9-dihydropurin-6-one in comparison to BVDU, four different batches containing 1.44 μmol/L CS, 481 nmol/L HSP27 (HSP) in a 40 mmol/L HEPES buffer (pH 7.4) were prepared and BVDU (750 μmol/L) or various concentrations of 2-(3-trichlorovinylphenylamino)-1,9-dihydropurin-6-one (14 μmol/L; 28 μmol/L) were added. The samples were then incubated at 43° C. and the aggregation behaviour of the CS was […] in a spectrometer (PerkinElmer LS55, PerkinElmer Inc.) at a wavelength of 500 nm.
It can be seen from FIG. 1 that the protein citrate synthase (graph CS alone) is denatured by increasing the temperature to 43° C. and forms aggregates. The aggregation is measured in the spectrometer at 500 nm (light scattering by protein aggregates). The presence of HSP27 (HSP) counteracts the aggregation (cf. graph, CS+HSP). Since the addition of the test substances (BVDU and 2-(3-trichlorovinylphenylamino)-1,9-dihydropurin-6-one) inhibits the chaperone function of HSP27, the activity of the respective test substance can be determined by measuring the aggregation behaviour of the CS.

[3] = system: late-stage pancreatic cancer patients; settings: cited from earlier work

T1 sequence (P04792 whole entry): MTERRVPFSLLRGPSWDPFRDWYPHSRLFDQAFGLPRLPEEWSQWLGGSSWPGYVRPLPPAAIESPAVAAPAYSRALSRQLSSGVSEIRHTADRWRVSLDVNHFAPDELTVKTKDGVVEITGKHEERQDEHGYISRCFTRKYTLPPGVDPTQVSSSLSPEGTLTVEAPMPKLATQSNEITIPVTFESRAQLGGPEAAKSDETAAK

| SpeedScreen: passage through Sephadex G-25 matrix bound to HSP27 (binder / non-binder) [1] | SMILES | effect on chaperone function of HSP27 (CS aggregation) [2] | safety and efficacy in patients ([3]; administered dose of 500 mg/day, oral) | tolerability in low-weight patients ([3]; increased administered dose of 760 mg/day) |
| --- | --- | --- | --- | --- |
| tested positively | CC(=O)c1ccc2c(c1)N(CCCN(C)C)c1ccccc1S2 [Acepromazine] |  |  |  |
|  | O=c1[nH]c(=O)n([C@H]2C[C@H](O)[C@@H](CO)O2)cc1/C=C/Br [BVDU, (E)-5-(2-bromovinyl)-2′-deoxyuridine] | partially cancels the chaperone function of HSP27 | works safely and efficiently | proved disadvantageous for low-weight patients |
